Source: patent US20260207720A1, “COMPOSITIONS AND METHODS FOR TREATING FUNGAL INFECTIONS” (MUCPharm Pty Ltd, priority 2022, published 2026)
≈ marks a conversion by molar mass, not a printed value. Read-outs that look alike come from different tables or passages of the source.

Key:
Format in all cases: cell-based
[1] = tested on: Aspergillus fumigatus (ATCC strain 13697); experiment: Broth dilution susceptibility test, MIC and percent growth (Example 7)
Experimental: A. Preparation of inoculum: • 1. Candida glabrata was grown on Sabouraud dextrose agar (SDA) at 37° C. for 24-48 hrs. • 2. Following this, 5 colonies of 1 mm diameter were picked and suspended in 5 mL sterile saline (0.9% saline) and vortexed for 15 seconds. • 3. Working suspension is prepared as a 1:100 dilution from stock suspension with RPMI 1640 culture medium. • 4. The cell density is adjusted with a spectrophotometer to the transmittance produced by a 0.5 McFarland standard (0.08 to 0.1) OD at 625 nm wavelength.
• 1. For Bromelain, a stock concentration of 1 mg/ml Bromelain solution was prepared in RPMI media and diluted to test concentrations of 62.4, 31.2, 15.6 and 7.8 μg/ml in RPMI 1640 media. • 2. Acetylcysteine stock concentration is 200 mg/ml, diluted to 40, 20, 10, and 5 mg/ml concentrations in RPMI 1640 medium. • 3. These concentrations are prepared at 2× of the required concentrations in the final assay plate.
Antifungal stock concentrations are as follows— • 1. Amphotericin B, Stock concentration: 250 μg/ml in water. • 2. Posaconazole, Original concentration: 300 mg in 16.7 ml, Working stock concentration: 1 mg/ml in DMSO. • 3. Fluconazole, Original concentration: 100 mg in 50 ml, Working stock concentration: 1 mg/ml in DMSO. • 4. The final concentration was prepared in RPMI 1640 media and concentrations range was 0.01-0.5 μg/mL for amphotericin B, 0.01-2 μg/mL for posaconazole and 0.01-64 μg/mL for fluconazole. • 5. These concentrations were prepared at 2× of the required concentrations in the final assay plate.
• 1. Wells of the 96-well plates were inoculated with appropriate concentrations and volumes of drugs. • 2. Sterility control and growth controls are included in each plate. • 3. Each 96-well plate (except the control wells) contains 100 μL of double strength (twice the final antifungal drug) concentrations. • 4. 100 μL of the fungal suspension is added to 96-well plates (except the sterility control wells). • 5. The growth control wells contained 100 μL of sterile drug-free medium and 100 μL of inoculum suspension, while the sterility control wells contained 200 μl of sterile drug-free medium. • 6. Plates are then incubated at 37° C. and read at 625,430, and 530 nm wavelengths. • 7. Data from 24 hours and absorbance at 625 nm were used for analysis.
These experiments were conducted to determine the efficacy of BromAc alone and in combination with existing antifungal drugs against Aspergillus fumigatus (ATCC strain 13697).
The method used in these experiments is essentially the same as that described above in Example 5. In these experiments, however, echinocandins such as […] Caspofungin are used in place of the azole antifungals described in earlier examples.

Rhizopus arrhizus = experiment: Chequerboard broth microdilution antifungal susceptibility testing (MIC)
Experimental: (§1) Unless otherwise described, fungal cultures were grown on potato dextrose agar plates at 35° C. until mature (appearance of conidia) and used to prepare suspensions in sterile water. […] These suspensions were then added in equal volume to solutions containing the candidate species described above and incubated at 35° C. for 24 hr. Plates were then analysed for fungal growth inhibition and MIC values determined. […] [MICA (combined)/MICA]+[MICB (combined)/MICB] MICA (combined) is the MIC of drug A when both drugs (i.e. drug A and drug B) are present and MICA is the MIC of drug A used in isolation. Similarly, MICB (combined) is the MIC of drug B when both drugs are present and MICB is the MIC of drug B used in isolation.

Rhizopus microsporus = experiment: as above
Experimental: as §1

Cunninghamella = experiment: Susceptibility assay of antifungals with BromAc (Example 4); settings: antifungal in combination with BromAc (5 mg/ml Acetylcysteine+12.5 μg/ml Bromelain) vs alone
Experimental: (§2) The in vitro antifungal properties of Bromelain, Acetylcysteine, BromAc, Amphotericin B, Isavuconazole, Fluconazole and Posaconazole were determined using a broth microdilution method in round bottom 96 well plates in accordance with standard procedures defined by the Clinical Laboratory Standards Institute (CLSI).
(§3) Unless otherwise described, fungal cultures were grown on potato dextrose agar plates at 35° C. until mature (appearance of conidia) and used to prepare suspensions in sterile water. Suspensions were diluted in RPMI 1:60. These suspensions were then added in equal volume to solutions containing the candidate species described above and incubated at 35° C. for 24 hr. Plates were then analysed for fungal growth inhibition and MIC values determined.
(§4) BromAc (5 mg/ml Acetylcysteine+12.5 μg/ml Bromelain) was used in combination with Amphotericin B, Isavuconazole, Posaconazole and Fluconazole. The MIC values of these four antifungal agents against the fungus described below were calculated and compared with their corresponding MIC values in the presence of BromAc, using the standard susceptibility assays described above.
(§5) The fungal strains set out in Table 2, all of which were sourced from a range of clinical isolates from Australian hospitals, were used in these experiments to gain a further understanding of the efficacy of BromAc in combination with Amphotericin B, Isavuconazole, Posaconazole and Fluconazole.

Candida kruseii = experiment: as above; settings: antifungal in combination with BromAc (5 mg/ml Acetylcysteine+12.5 μg/ml Bromelain) vs alone
Experimental: as §2, §3, §4, §5

Licthemia = experiment: as above; settings: antifungal in combination with BromAc (5 mg/ml Acetylcysteine+12.5 μg/ml Bromelain) vs alone
Experimental: as §2, §3, §4, §5

Candida tropicalis = experiment: as above; settings: antifungal in combination with BromAc (5 mg/ml Acetylcysteine+12.5 μg/ml Bromelain) vs alone
Experimental: as §2, §3, §4, §5

Scedosporium = experiment: as above; settings: antifungal in combination with BromAc (5 mg/ml Acetylcysteine+12.5 μg/ml Bromelain) vs alone
Experimental: as §2, §3, §4, §5

Fusarium = experiment: as above; settings: antifungal in combination with BromAc (5 mg/ml Acetylcysteine+12.5 μg/ml Bromelain) vs alone
Experimental: as §2, §3, §4, §5

Cryptococcus = experiment: as above
Experimental: as §2, §3, §4, §5

Candida auris = experiment: as above
Experimental: as §2, §3, §4, §5

Candida glabrata = experiment: as above
Experimental: as §2, §3, §4, §5

Lomentospora = experiment: as above; settings: antifungal in combination with BromAc (5 mg/ml Acetylcysteine+12.5 μg/ml Bromelain) vs alone
Experimental: as §2, §3, §4, §5

Mucor circinelloides = experiment: as above
Experimental: as §2, §3, §4, §5

Aspergillus = experiment: as above; settings: antifungal in combination with BromAc (5 mg/ml Acetylcysteine+12.5 μg/ml Bromelain) vs alone
Experimental: as §2, §3, §4, §5

[2] = tested on: Mucormycete group (Rhizopus microspores, Fusarium solani cx, Rhizopus arrhizus and Candida krusei QC); experiment: Susceptibility assay of bromelain and acetylcysteine alone or together (Example 1); settings: in isolation, R. microsporus, read-out: MIC required to inhibit Mucormycete growth
Experimental: as §3, with “determined. […] Initial tests were conducted on one strain of Rhizopus microsporus, one strain of Rhizopus arrhizus and one strain of Candida krusei QC, all sourced clinically.” for “determined.”

[3] = antifungal in combination with BromAc (5 mg/ml Acetylcysteine+12.5 μg/ml Bromelain) vs alone

CC[C@H](C)C[C@H](C)CCCCCCCCC(=O)N[C@H]1C[C@@H](O)[C@@H](NCCN)NC(=O)[C@@H]2[C@@H](O)CCN2C(=O)[C@H]([C@H](O)CCN)NC(=O)[C@H]([C@H](O)[C@@H](O)c2ccc(O)cc2)NC(=O)[C@@H]2C[C@@H](O)CN2C(=O)[C@H]([C@@H](C)O)NC1=O [Caspofungin]
MIC ([1]; FIGS. 13a, 14a): > 1 µg/mL | effect at lower concentrations (in words) ([1]; Voriconazole 1 μg/ml and 0.5 μg/ml, Caspofungin 0.25 μg/ml and 0.125 μg/ml): almost no inhibitory effect

C[C@@H](c1nc(-c2ccc(C#N)cc2)cs1)[C@](O)(Cn1cncn1)c1cc(F)ccc1F [Isavuconazole]
isolates with 10× increase (Rhizopus arrhizus; Rhizopus Arrhizus, antifungal with BromAc): 6 of 8 | MIC (Rhizopus arrhizus; Rhizopus arrhizus, eight R. arrhizus strains, read-out: MIC, average over the strains): 0.8 µg/mL (≈ 1.83 µM) | MIC (Rhizopus arrhizus; Rhizopus arrhizus, isolate R. archizus 1, BromAc at constant concentration where combined, read-out: MIC): 1 µg/mL | MIC (Rhizopus arrhizus; Rhizopus arrhizus, isolate R. archizus 2, BromAc at constant concentration where combined, read-out: MIC): 1 µg/mL | MIC (Rhizopus arrhizus; Rhizopus arrhizus, isolate R. archizus 3, BromAc at constant concentration where combined, read-out: MIC): 1 µg/mL | MIC (Rhizopus arrhizus; Rhizopus arrhizus, isolate R. archizus 8, BromAc at constant concentration where combined, read-out: MIC): 1 µg/mL | MIC (Rhizopus arrhizus; Rhizopus arrhizus, isolate R. arrhizus 4, BromAc at constant concentration where combined, read-out: MIC): 1 µg/mL | MIC (Rhizopus arrhizus; Rhizopus arrhizus, isolate R. arrhizus 5, BromAc at constant concentration where combined, read-out: MIC): 0.5 µg/mL | MIC (Rhizopus arrhizus; Rhizopus arrhizus, isolate R. arrhizus 6, BromAc at constant concentration where combined, read-out: MIC): 1 µg/mL | MIC (Rhizopus arrhizus; Rhizopus arrhizus, isolate R. arrhizus 7, BromAc at constant concentration where combined, read-out: MIC): 0.5 µg/mL | Observed inhibitory effect (Rhizopus arrhizus; Rhizopus arrhizus, antifungal in combination with BromAc (5 mg/ml Acetylcysteine+12.5 μg/ml Bromelain) vs alone): Strong (Strong = 5-10x (or greater) inhibitory effect) | MICs, range over the strains (Rhizopus arrhizus; eight R. arrhizus strains): 0.5 to 2 µg/mL | isolates with more than 10× increase (Rhizopus microsporus; Rhizopus microspores, antifungal with BromAc): 9 of 10 | MIC (Rhizopus microsporus; Rhizopus microsporus, eight R. microsporus strains, read-out: MIC, average over the strains): 0.9 µg/mL (≈ 2.06 µM) | MIC (Rhizopus microsporus; Rhizopus microsporus, isolate R. microsporus 1, BromAc at constant concentration where combined, read-out: MIC): 0.2 µg/mL | MIC (Rhizopus microsporus; Rhizopus microsporus, isolate R. microsporus 2, BromAc at constant concentration where combined, read-out: MIC): 0.5 µg/mL | MIC (Rhizopus microsporus; Rhizopus microsporus, isolate R. microsporus 3, BromAc at constant concentration where combined, read-out: MIC): 0.5 µg/mL | MIC (Rhizopus microsporus; Rhizopus microsporus, isolate R. microsporus 4, BromAc at constant concentration where combined, read-out: MIC): 1 µg/mL | MIC (Rhizopus microsporus; Rhizopus microsporus, isolate R. microsporus 5, BromAc at constant concentration where combined, read-out: MIC): 0.5 µg/mL | MIC (Rhizopus microsporus; Rhizopus microsporus, isolate R. microsporus 6, BromAc at constant concentration where combined, read-out: MIC): 0.5 µg/mL | MIC (Rhizopus microsporus; Rhizopus microsporus, isolate R. microsporus 7, BromAc at constant concentration where combined, read-out: MIC): 0.5 µg/mL | Observed inhibitory effect (Rhizopus microsporus; Rhizopus microsporus, antifungal in combination with BromAc (5 mg/ml Acetylcysteine+12.5 μg/ml Bromelain) vs alone): Strong (Strong = 5-10x (or greater) inhibitory effect) | MICs, range over the strains (Rhizopus microsporus; eight R. microsporus strains): 0.5 to 1 µg/mL | Observed inhibitory effect (Cunninghamella): Possible | Observed inhibitory effect (Candida kruseii): Strong (Strong = 5-10x (or greater) inhibitory effect) | Observed inhibitory effect (Licthemia): Possible | Observed inhibitory effect (Candida tropicalis): Strong (Strong = 5-10x (or greater) inhibitory effect) | Observed inhibitory effect (Scedosporium): No effect | Observed inhibitory effect (Fusarium): No effect | Observed inhibitory effect (Cryptococcus; [3]): Strong (Strong = 5-10x (or greater) inhibitory effect) | isolates with more than 10× increase (Cryptococcus; antifungal with BromAc): 5 of 5 | isolates with more than 10× increase (Candida auris; Candida auris, antifungal with BromAc): 4 of 5 | Observed inhibitory effect (Candida auris; Candida aurus, antifungal in combination with BromAc (5 mg/ml Acetylcysteine+12.5 μg/ml Bromelain) vs alone): Strong (Strong = 5-10x (or greater) inhibitory effect) | Observed inhibitory effect (Candida glabrata; [3]): Strong (Strong = 5-10x (or greater) inhibitory effect) | isolates with more than a 10× increase in sensitivity (Candida glabrata; antifungal with BromAc): 5 of 5 | Observed inhibitory effect (Lomentospora): No effect | Observed inhibitory effect (Mucor circinelloides; [3]): Strong (Strong = 5-10x (or greater) inhibitory effect) | isolates with increased sensitivity (Mucor circinelloides; antifungal with BromAc): 2 of 2 | Observed inhibitory effect (Aspergillus): Moderate (Moderate = 1-5x inhibitory effect)

CC(=O)N[C@@H](CS)C(=O)O [Acetylcysteine, N-acetylcysteine]
MIC [2]: 10 µg/mL (≈ 61.3 µM)
